Test results as given in ChEMBL document CHEMBL1127817, “Antitumor agents. 150. 2',3',4',5',5,6,7-substituted 2-phenyl-4-quinolones and related compounds: their synthesis, cytotoxicity, and inhibition of tubulin polymerization” (J Med Chem, 1994).
Blank lines part the entries; values can stand above or below the compound they belong to.

What was measured:
SF-268 = assay: In vitro inhibition of tumor cell growth of SF-268, CNS tumor cell line; format: functional; details: Homo sapiens
HCT-116 = assay: In vitro inhibition of tumor cell growth of HCT116, colon cancer cell line; format: functional; details: Homo sapiens
SF-295 = assay: In vitro inhibition of tumor cell growth of SF-295, CNS tumor cell line; format: functional; details: Homo sapiens
DMS-114 = assay: In vitro inhibition of tumor cell growth of DMS114, a small-cell lung cancer cell line; details: Homo sapiens
NCI-H226 = assay: In vitro inhibition of tumor cell growth of NCI-H226, a non small-cell lung cancer cell line; format: functional; details: Homo sapiens
KM-20L2 = assay: In vitro inhibition of tumor cell growth of KM20L2, colon cancer cell line; format: functional; details: Homo sapiens
OVCAR-3 = assay: In vitro inhibition of tumor cell growth of OVCAR-3, ovarian cancer cell line; format: functional; details: Homo sapiens
Tubulin beta chain = Tubulin beta chain (Bos taurus, UniProt Q6B856); assay: Inhibition of tubulin polymerization; format: functional
RXF 393 = assay: In vitro inhibition of tumor cell growth of RXF-393, renal cancer cell line; format: functional; details: Homo sapiens
SK-MEL-5 = assay: In vitro inhibition of tumor cell growth of SK-Mel-5, melanoma cell line; format: functional; details: Homo sapiens

Chain of Tubulin beta chain (Q6B856 whole entry): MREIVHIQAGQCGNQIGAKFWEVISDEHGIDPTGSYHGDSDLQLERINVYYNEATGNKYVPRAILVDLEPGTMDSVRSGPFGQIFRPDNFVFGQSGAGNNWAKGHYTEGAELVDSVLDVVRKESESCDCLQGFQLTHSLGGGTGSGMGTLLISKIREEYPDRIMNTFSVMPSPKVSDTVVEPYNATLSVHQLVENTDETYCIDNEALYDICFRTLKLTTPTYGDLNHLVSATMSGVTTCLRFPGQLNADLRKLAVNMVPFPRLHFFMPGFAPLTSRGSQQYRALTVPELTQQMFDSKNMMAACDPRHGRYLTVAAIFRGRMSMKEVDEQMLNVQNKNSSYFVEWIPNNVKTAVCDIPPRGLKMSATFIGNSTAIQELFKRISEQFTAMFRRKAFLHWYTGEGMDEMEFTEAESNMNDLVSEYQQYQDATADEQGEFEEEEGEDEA

Compound: Oc1cc(-c2ccccn2)nc2ccc(Cl)cc12
GI50 (SF-268): 23.4 µM | GI50 (HCT-116): 26.3 µM | GI50 (SF-295): 51.3 µM | GI50 (DMS-114): 13.8 µM | GI50 (NCI-H226): 46.8 µM | GI50 (KM-20L2): 39.8 µM | GI50 (OVCAR-3): 63.1 µM | IC50 (Tubulin beta chain): > 40 µM | GI50 (RXF 393): 33.9 µM | GI50 (SK-MEL-5): 26.3 µM

Compound: COc1cccc(-c2cc(O)c3ccccc3n2)c1
GI50 (SF-268): 6.76 µM | GI50 (HCT-116): 5.75 µM | GI50 (SF-295): 2.29 µM | GI50 (DMS-114): 5.62 µM | GI50 (NCI-H226): 2.82 µM | GI50 (KM-20L2): 8.51 µM | GI50 (OVCAR-3): 5.5 µM | IC50 (Tubulin beta chain): 1.4 µM | GI50 (RXF 393): 6.61 µM

Compound: COc1cc2nc(-c3cccc(N(C)C)c3)cc(O)c2cc1OC
GI50 (SF-268): 5.25 µM | GI50 (HCT-116): 5.01 µM | GI50 (SF-295): 1.95 µM | GI50 (DMS-114): 4.79 µM | GI50 (NCI-H226): 1.86 µM | GI50 (KM-20L2): 2 µM | GI50 (OVCAR-3): < 1 µM | IC50 (Tubulin beta chain): 15 µM | GI50 (RXF 393): 2.24 µM

Compound: CN(C)c1cccc(-c2cc(O)c3ccccc3n2)c1
GI50 (SF-268): 75.9 µM | GI50 (HCT-116): 58.9 µM | GI50 (SF-295): 28.2 µM | GI50 (DMS-114): 45.7 µM | GI50 (NCI-H226): 29.5 µM | GI50 (KM-20L2): 34.7 µM | GI50 (OVCAR-3): 41.7 µM | IC50 (Tubulin beta chain): 1.5 µM | GI50 (RXF 393): 35.5 µM

Compound: COc1ccc(-c2cc(O)c3cc(OC)c(OC)cc3n2)cc1OC
GI50 (SF-268): > 100 µM | GI50 (HCT-116): > 100 µM | GI50 (SF-295): > 100 µM | GI50 (NCI-H226): > 100 µM | GI50 (OVCAR-3): > 100 µM | IC50 (Tubulin beta chain): > 40 µM | GI50 (RXF 393): 67.6 µM | GI50 (SK-MEL-5): > 100 µM

Compound: COc1cc(-c2cc(O)c3ccccc3n2)cc(OC)c1OC
GI50 (SF-268): > 100 µM | GI50 (HCT-116): > 100 µM | GI50 (SF-295): > 100 µM | GI50 (DMS-114): > 100 µM | GI50 (NCI-H226): > 100 µM | GI50 (KM-20L2): > 100 µM | GI50 (OVCAR-3): > 100 µM | IC50 (Tubulin beta chain): > 40 µM | GI50 (RXF 393): > 100 µM

Compound: COc1ccc2nc(-c3ccc(O)cc3)cc(O)c2c1
GI50 (SF-268): 0.417 µM | GI50 (HCT-116): 0.209 µM | GI50 (SF-295): 0.245 µM | GI50 (DMS-114): 0.178 µM | GI50 (NCI-H226): 0.209 µM | GI50 (KM-20L2): 0.407 µM | GI50 (OVCAR-3): 0.302 µM | IC50 (Tubulin beta chain): 5.6 µM | GI50 (RXF 393): 0.17 µM | GI50 (SK-MEL-5): 0.288 µM

Compound: Oc1c2c(nc3cc4c(cc13)OCO4)-c1ccccc1CC2
GI50 (SF-268): > 100 µM | GI50 (HCT-116): > 100 µM | GI50 (SF-295): > 100 µM | GI50 (DMS-114): > 100 µM | GI50 (NCI-H226): > 100 µM | GI50 (KM-20L2): > 100 µM | GI50 (OVCAR-3): > 100 µM | IC50 (Tubulin beta chain): > 40 µM | GI50 (RXF 393): > 100 µM | GI50 (SK-MEL-5): > 100 µM

Compound: COc1cccc(-c2cc(O)c3cc(OC)c(OC)cc3n2)c1
GI50 (SF-268): 50.1 µM | GI50 (HCT-116): 58.9 µM | GI50 (SF-295): 40.7 µM | GI50 (DMS-114): 55 µM | GI50 (NCI-H226): 21.4 µM | GI50 (KM-20L2): 24 µM | GI50 (OVCAR-3): 33.9 µM | IC50 (Tubulin beta chain): 4.3 µM | GI50 (RXF 393): 33.1 µM

Compound: Oc1cc(-c2ccccn2)nc2cccc(F)c12
GI50 (SF-295): > 100 µM | GI50 (DMS-114): > 100 µM | GI50 (NCI-H226): > 100 µM | GI50 (KM-20L2): > 100 µM | GI50 (OVCAR-3): > 100 µM | IC50 (Tubulin beta chain): > 40 µM | GI50 (RXF 393): > 100 µM | GI50 (SK-MEL-5): 61.7 µM

Compound: COc1cc2nc(-c3ccccc3)cc(O)c2cc1OC
IC50 (Tubulin beta chain): 18 µM

Further lines, with some results ahead:

GI50 (HCT-116): > 100 µM | GI50 (DMS-114): > 100 µM | GI50 (NCI-H226): > 100 µM | GI50 (OVCAR-3): > 100 µM | IC50 (Tubulin beta chain): > 40 µM | GI50 (SK-MEL-5): > 100 µM
Compound: CN(C)c1ccc(-c2cc(O)c3cc4c(cc3n2)OCO4)cc1
GI50 (SF-268): > 100 µM | GI50 (SF-295): > 100 µM | GI50 (KM-20L2): > 100 µM | GI50 (RXF 393): > 100 µM

GI50 (HCT-116): 40.7 µM | GI50 (DMS-114): 26.3 µM | GI50 (NCI-H226): 93.3 µM | GI50 (OVCAR-3): > 100 µM | IC50 (Tubulin beta chain): > 40 µM | GI50 (SK-MEL-5): 42.7 µM
Compound: COc1ccc(-c2cc(O)c3cc4c(cc3n2)OCO4)c(OC)c1
GI50 (SF-268): 63.1 µM | GI50 (SF-295): 45.7 µM | GI50 (KM-20L2): 42.7 µM | GI50 (RXF 393): 45.7 µM

GI50 (HCT-116): > 100 µM | GI50 (DMS-114): > 100 µM | GI50 (NCI-H226): > 100 µM | GI50 (OVCAR-3): > 100 µM | IC50 (Tubulin beta chain): 1.3 µM | GI50 (SK-MEL-5): > 100 µM
Compound: Oc1cc(-c2c[nH]c3ccccc23)nc2cc3c(cc12)OCO3
GI50 (SF-268): > 100 µM | GI50 (SF-295): 91.2 µM | GI50 (KM-20L2): > 100 µM | GI50 (RXF 393): > 100 µM

GI50 (HCT-116): > 100 µM | GI50 (DMS-114): 29.5 µM | GI50 (NCI-H226): > 100 µM | GI50 (OVCAR-3): > 100 µM | IC50 (Tubulin beta chain): > 40 µM | GI50 (SK-MEL-5): > 100 µM
Compound: COc1ccc(-c2cc(O)c3cc4c(cc3n2)OCO4)c(OC)c1OC
GI50 (SF-268): > 100 µM | GI50 (SF-295): 75.9 µM | GI50 (KM-20L2): > 100 µM | GI50 (RXF 393): > 100 µM

GI50 (HCT-116): 39.8 µM | GI50 (DMS-114): 37.2 µM | GI50 (NCI-H226): 24.5 µM | GI50 (OVCAR-3): 42.7 µM | IC50 (Tubulin beta chain): 23 µM | GI50 (SK-MEL-5): 13.5 µM
Compound: Oc1cc(-c2ccco2)nc2cc3c(cc12)OCO3
GI50 (SF-268): 41.7 µM | GI50 (SF-295): 28.2 µM | GI50 (KM-20L2): 21.4 µM | GI50 (RXF 393): 25.1 µM

GI50 (HCT-116): 74.1 µM | GI50 (DMS-114): 83.2 µM | GI50 (NCI-H226): > 100 µM | GI50 (OVCAR-3): > 100 µM | IC50 (Tubulin beta chain): > 40 µM | GI50 (SK-MEL-5): 93.3 µM
Compound: COc1cc(-c2cc(O)c3cc4c(cc3n2)OCO4)cc(OC)c1OC
GI50 (SF-268): 32.4 µM | GI50 (SF-295): 32.4 µM | GI50 (KM-20L2): > 100 µM | GI50 (RXF 393): 21.9 µM
